Data: US8802053B2 (Brookhaven Science Associates, LLC, priority 2009, dated 2014)

Columns and labels:
brain aromatase = experiment: PET studies in baboons (brain imaging); format: in vivo, baboon
Method: PET Studies in Baboons: All animal studies were reviewed and approved by the Brookhaven Institutional Animal Care and Use Committee. […] Baboons were anesthetized with ketamine (10 mg/kg) and then intubated and ventilated with a mixture of isoflurane (Forane, 1-4%) and nitrous oxide (1500 mL/min) and oxygen (800 mL/min). Animals were transported to and from the PET facility in a temperature controlled transfer cage and a member of the staff attended them while they recovered from anesthesia. Catheters were inserted in a popliteal artery and radial arm vein for arterial sampling a radiotracer injection respectively. Dynamic PET imaging was carried out on a Siemen's HR+ high resolution, whole body PET scanner (4.5×4.5×4.8 mm at center of field of view) in 3D acquisition mode, 63 planes. A transmission scan was obtained with a ^68Ge rotating rod source before the emission scan to correct for attenuation before each radiotracer injection. […] Dynamic scanning was carried out for 90 minutes with the following time frames (1×10 sec; 12×5 sec; 1×20 sec; 1×30 sec; 8×60 sec; 4×300 sec; 8×450 sec). […] During the PET scan, baboons were monitored for heart rate, respiration rate, PO2 and temperature. Animals were allowed 4 weeks between studies to recover from anesthesia and blood sampling.
Image Analysis: Time frames were summed over the 90 minute experimental period. Regions of interest were placed over the amygdala, the preoptic area, frontal cortex, cerebellum and thalamus on the summed image and then projected onto the dynamic images to obtain time activity curves. Regions occurring bilaterally were averaged. Carbon-11 concentration in each region of interest was divided by the injected dose to obtain the % dose/cc. The summed PET images from one baboon was co-registered with a 3D MR image of the same animal using PMOD (PMOD Technologies, Ltd.).

[1] = Plasma analysis for fraction of 11C-isomers (unchanged parent tracer by HPLC); format: in vivo; settings: baboon plasma
Method: Plasma analysis for fraction of ^11C-isomers: Plasma samples at 1, 5, 10, 30 and 60 min were analyzed by HPLC to determine the percent of residual parent tracer. Plasma samples from selected time points were added to 300 μL acetonitrile containing an appropriate amount of standard, then subjected to cell disruption using a Polytron (Brinkmann Instruments), centrifuged for 4 minutes and decanted into 300 μL water. HPLC conditions were 60:40 0.1 M ammonium formate:acetonitrile, Waters μBondapak column (3.9×300 mm), flow 1.3 mL/min, UV detection at 254 nm. Supernatants were injected onto the column, reserving a measured amount to determine recovery of injected activity from the column. […] Five fractions were collected from each injection, 3 before the parent peak, the parent peak, and finally the tail of the parent peak. The percent unchanged tracer was determined by dividing the sum of the last 2 peaks by the sum of all HPLC fractions.

brain aromatase enzymes = settings: Kil et al. (2008); cited from earlier work

SMILES: N#Cc1ccc(C(c2ccc(C#N)cc2)n2cncn2)cc1 [letrozole, reference compound]
- effect of pretreatment on [N-methyl-11C]vorozole accumulation in brain (brain aromatase; blocking dose 0.1 mg/kg, 5 min prior, baboon): reduced [N-methyl-^11C]vorozole accumulation in all brain regions examined

SMILES: [11CH3]n1nc2ccc(C(c3ccc(Cl)cc3)n3cncn3)cc2n1 (stereo not drawn) [N-2 isomer]
- appearance of labeled metabolites in plasma [1]: very rapid appearance of labeled metabolites
- disappearance of parent labeled compound from plasma [1]: rapid rate of disappearance of the parent labeled compound from plasma
- distribution to aromatase-rich brain regions (brain aromatase; baboon brain): no specific distribution to aromatase-rich brain regions
- PET image uptake in amygdala and preoptic area (brain aromatase; baboon brain, images summed 15-90 min after injection, FIG. 3): no specific uptake in amygdala and preoptic area

SMILES: N#Cc1ccc(C(c2ccc(C#N)cc2)n2cncn2)cc1 [[^11C]letrozole]
- blocking of uptake by pretreatment with unlabeled letrozole (brain aromatase enzymes): failed to block uptake
- brain uptake and clearance (brain aromatase enzymes): rapidly taken up in the brain and was then rapidly cleared
